Source: patent publication US6737383B1, “Herbicidal oxadiazolidines” (priority 1999, dated 2004)

What was measured:
purple nutsedge = assay: Test B pre/postemergence purple nutsedge; type: in vivo, Cyperus rotundus
Summary of the method: (§1)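 Test chemicals in a non-phytotoxic solvent mixture with surfactant were sprayed preemergence onto planted seeds and postemergence onto plants 2 to 18 cm tall (1- to 4-leaf stage). After twelve to sixteen days in a greenhouse, injury was visually rated against untreated controls from 0 (no effect) to 10 (complete control).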

wild oat = assay: Test B pre/postemergence wild oat; type: in vivo, Avena fatua
Summary of the method: as §1

wheat = assay: Test B pre/postemergence wheat; type: in vivo, Triticum aestivum
Summary of the method: as §1

blackgrass = assay: Test B pre/postemergence blackgrass; type: in vivo, Alopecurus myosuroides
Summary of the method: as §1

corn = assay: Test B pre/postemergence corn; type: in vivo, Zea mays
Summary of the method: as §1

surinam grass = assay: Test B pre/postemergence surinam grass; type: in vivo, Brachiaria decumbens
Summary of the method: as §1

rape = assay: Test B pre/postemergence rape; type: in vivo, Brassica napus
Summary of the method: as §1

giant foxtail = assay: Test B pre/postemergence giant foxtail; type: in vivo, Setaria faberii
Summary of the method: as §1

rice = assay: Test B flood test rice; type: in vivo, Oryza sativa
Summary of the method: (§2)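 Plants were grown to the 2-leaf stage before treatment with test chemical, then held in a greenhouse for twelve to sixteen days. Injury was visually rated against untreated controls on a 0–10 scale, where 0 is no effect and 10 is complete control.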

sugar beet = assay: Test B pre/postemergence sugar beet; type: in vivo, Beta vulgaris
Summary of the method: as §1

bamyardgrass = assay: Test B flood test barnyardgrass; type: in vivo, Echinochloa crus-galli
Summary of the method: as §2

velvetleaf = assay: Test B pre/postemergence velvetleaf; type: in vivo, Abutilon theophrasti
Summary of the method: as §1

crabgrass = assay: Test B pre/postemergence crabgrass; type: in vivo, Digitaria sanguinalis
Summary of the method: as §1

duck salad = assay: Test B flood test duck salad; type: in vivo, Heteranthera limosa
Summary of the method: as §2

smallflower flatsedge = assay: Test B flood test smallflower flatsedge; type: in vivo, Cyperus difformis
Summary of the method: as §2

[1] = Postemergence, Rate 250 g/ha, scale 0 to 10
[2] = Postemergence, Rate 500 g/ha, scale of 0 to 10 where 0 is no effect and 10 is complete control
[3] = Preemergence, Rate 62 g/ha, scale of 0 to 10 where 0 is no effect and 10 is complete control
[4] = Preemergence, Rate 125 g/ha, scale of 0 to 10 where 0 is no effect and 10 is complete control
[5] = Preemergence, Rate 250 g/ha, scale 0 to 10, 0 is no effect, 10 is complete control
[6] = Preemergence, Rate 500 g/ha, scale 0 to 10, 0 is no effect, 10 is complete control
[7] = Rate 62 g/ha, Postemergence, scale 0 to 10 (0 no effect, 10 complete control)
[8] = Rate 125 g/ha, Postemergence, scale 0 to 10, 0 is no effect, 10 is complete control
[9] = Rate 62 g/ha, flood test species, Pre-emergence, visual evaluation after twelve to sixteen days
[10] = Rate 125 g/ha, under heading Pre-emergence, flood test species, visual evaluation after twelve to sixteen days
[11] = Rate 250 g/ha, Pre-emergence (flood test species), scale 0 to 10, 0 is no effect, 10 is complete control
[12] = Rate 500 g/ha, Pre-emergence, flood test species, scale 0 to 10 (0 no effect, 10 complete control)

CC(C)N(C(=O)n1oc(=O)n(CCC#N)c1=O)c1ccc(Cl)cc1 [Compound 444]
Nutsedge plant response rating (purple nutsedge; [1]): 0
Nutsedge plant response rating (purple nutsedge; [2]): 0
Plant response rating, Nutsedge (purple nutsedge; [3]): 0
Plant response rating, Nutsedge (purple nutsedge; [4]): 0
Nutsedge plant response rating (purple nutsedge; [5]): 0
Nutsedge plant response rating (purple nutsedge; [6]): 0
Nutsedge plant response rating (purple nutsedge; [7]): 0
Nutsedge plant response rating (purple nutsedge; [8]): 0
Wild oats plant response rating (wild oat; [1]): 0
Wild oats plant response rating (wild oat; [2]): 2
Plant response rating, Wild oats (wild oat; [3]): 0
Plant response rating, Wild oats (wild oat; [4]): 0
Wild oats plant response rating (wild oat; [5]): 0
Wild oats plant response rating (wild oat; [6]): 4
Wild oats plant response rating (wild oat; [7]): 0
Wild oats plant response rating (wild oat; [8]): 0
Wheat plant response rating (wheat; [1]): 0
Wheat plant response rating (wheat; [2]): 0
Plant response rating, Wheat (wheat; [3]): 0
Plant response rating, Wheat (wheat; [4]): 0
Wheat plant response rating (wheat; [5]): 0
Wheat plant response rating (wheat; [6]): 0
Wheat plant response rating (wheat; [7]): 0
Wheat plant response rating (wheat; [8]): 0
Blackgrass plant response rating (blackgrass; [1]): 5
Blackgrass plant response rating (blackgrass; [2]): 7
Plant response rating, Blackgrass (blackgrass; [3]): 0
Plant response rating, Blackgrass (blackgrass; [4]): 0
Blackgrass plant response rating (blackgrass; [5]): 8
Blackgrass plant response rating (blackgrass; [6]): 8
Blackgrass plant response rating (blackgrass; [7]): 0
Blackgrass plant response rating (blackgrass; [8]): 2
Corn plant response rating (corn; [1]): 0
Corn plant response rating (corn; [2]): 0
Plant response rating, Corn (corn; [3]): 0
Plant response rating, Corn (corn; [4]): 0
Corn plant response rating (corn; [5]): 0
Corn plant response rating (corn; [6]): 0
Corn plant response rating (corn; [7]): 0
Corn plant response rating (corn; [8]): 0
B. signalgrass plant response rating (surinam grass; Postemergence, Rate 250 g/ha, scale 0 to 10, 0 no effect, 10 complete control): 4
B. signalgrass plant response rating (surinam grass; [2]): 4
Plant response rating, B. signalgrass (surinam grass; [3]): 0
Plant response rating, B. signalgrass (surinam grass; [4]): 0
B. signalgrass plant response rating (surinam grass; [5]): 1
B. signalgrass plant response rating (surinam grass; [6]): 8
B. signalgrass plant response rating (surinam grass; [7]): 0
B. signalgrass plant response rating (surinam grass; [8]): 0
Rape plant response rating (rape; [1]): 0
Rape plant response rating (rape; [2]): 0
Plant response rating, Rape (rape; [3]): 0
Plant response rating, Rape (rape; [4]): 0
Rape plant response rating (rape; [5]): 0
Rape plant response rating (rape; [6]): 2
Rape plant response rating (rape; [7]): 0
Rape plant response rating (rape; [8]): 0
Giant foxtail plant response rating (giant foxtail; [1]): 8
Giant foxtail plant response rating (giant foxtail; [2]): 9
Plant response rating, Giant foxtail (giant foxtail; [3]): 9
Plant response rating, Giant foxtail (giant foxtail; [4]): 9
Giant foxtail plant response rating (giant foxtail; [5]): 10
Giant foxtail plant response rating (giant foxtail; [6]): 10
Giant foxtail plant response rating (giant foxtail; [7]): 4
Giant foxtail plant response rating (giant foxtail; [8]): 7
Plant response rating, Rice (0 to 10 scale, 0 is no effect, 10 is complete control) (rice; [9]): 0
Rice plant response rating (0 to 10 scale, 0 is no effect, 10 is complete control) (rice; [10]): 0
Rice plant response rating (rice; [11]): 0
Rice plant response rating (rice; [12]): 0
Sugarbeets plant response rating (sugar beet; [1]): 0
Sugarbeets plant response rating (sugar beet; [2]): 3
Plant response rating, Sugarbeets (sugar beet; [3]): 0
Plant response rating, Sugarbeets (sugar beet; [4]): 0
Sugarbeets plant response rating (sugar beet; [5]): 0
Sugarbeets plant response rating (sugar beet; [6]): 0
Sugarbeets plant response rating (sugar beet; [7]): 0
Sugarbeets plant response rating (sugar beet; [8]): 0
Plant response rating, Barnyardgrass (0 to 10 scale, 0 is no effect, 10 is complete control) (bamyardgrass; [9]): 0
Barnyardgrass plant response rating (0 to 10 scale, 0 is no effect, 10 is complete control) (bamyardgrass; [10]): 0
Barnyardgrass plant response rating (bamyardgrass; [11]): 0
Barnyardgrass plant response rating (bamyardgrass; [12]): 0
Velvetleaf plant response rating (velvetleaf; [1]): 0
Velvetleaf plant response rating (velvetleaf; [2]): 3
Plant response rating, Velvetleaf (velvetleaf; [3]): 0
Plant response rating, Velvetleaf (velvetleaf; [4]): 0
Velvetleaf plant response rating (velvetleaf; [5]): 0
Velvetleaf plant response rating (velvetleaf; [6]): 4
Velvetleaf plant response rating (velvetleaf; [7]): 0
Velvetleaf plant response rating (velvetleaf; [8]): 0
Crabgrass plant response rating (crabgrass; [1]): 9
Crabgrass plant response rating (crabgrass; [2]): 9
Plant response rating, Crabgrass (crabgrass; [3]): 4
Plant response rating, Crabgrass (crabgrass; [4]): 5
Crabgrass plant response rating (crabgrass; [5]): 9
Crabgrass plant response rating (crabgrass; [6]): 10
Crabgrass plant response rating (crabgrass; [7]): 2
Crabgrass plant response rating (crabgrass; [8]): 2
Plant response rating, Ducksalad (0 to 10 scale, 0 is no effect, 10 is complete control) (duck salad; [9]): 0
Ducksalad plant response rating (0 to 10 scale, 0 is no effect, 10 is complete control) (duck salad; [10]): 0
Ducksalad plant response rating (duck salad; [11]): 0
Ducksalad plant response rating (duck salad; [12]): 0
Plant response rating, S. Flatsedge (0 to 10 scale, 0 is no effect, 10 is complete control) (smallflower flatsedge; [9]): 0
S. Flatsedge plant response rating (0 to 10 scale, 0 is no effect, 10 is complete control) (smallflower flatsedge; [10]): 0
S. Flatsedge plant response rating (smallflower flatsedge; [11]): 0
S. Flatsedge plant response rating (smallflower flatsedge; [12]): 0
